# Experimental data published in patent US20080261895A1 (Wyeth, priority 2006, published 2008).
# Several values for one entry are separate records, joined by “and”; a condition that tells them apart may be missing. Identical values can stand only once.
# How the values were obtained:
# [1] = Urinary excretion and metabolite profile by radiochromatography, rats; type: in vivo, Sprague Dawley rats; conditions: for Compounds Detected by Radiochromatography in urine (Mean ± S.D., n = 3), percent of total peaks / Radioactivity as % of Dose in urine, Mean ± S.D. / Radioactivity as % of Dose in urine, Individuals: single oral 20 mg/kg; for Radioactivity as % of Dose in urine, Individuals: listed as [^14C]DVS, 20 mg/kg
# Procedure: (§1) Urine and feces were collected separately on dry ice from three animals per sex. Collections were from 0-8 and 8-24 hours for male rats and 0-8 hours for female rats. Fecal samples were homogenized in approximately five volumes (v/w) of water. Aliquots of approximately 0.4 grams of the homogenate were placed into combusto-cones, weighed and allowed to air dry. These samples were then oxidized. The remaining urine samples and fecal homogenates were stored at −70° C. until metabolite analysis.
# All urine samples were analyzed for metabolite profiles. Aliquots of 0.5 mL urine were centrifuged at 3500 rpm and 4° C. in a Sorvall Super 21 centrifuge for 10 minutes. The supernatant was transferred to a fresh tube and analyzed for radioactivity content and by HPLC for profiling. Selected samples were also analyzed by LC/MS to characterize the radioactive peaks.
# (§2) Chromatographic analyses were performed with a Waters Alliance model 2690 HPLC system (Waters Corp., Milford, Mass.). It was equipped with a built-in autosampler and was in-line with a model 2487 tunable UV detector, set to monitor 225 nm, and a FloOne β Model 525 radioactivity flow detector (Perkin Elmer) with a 250 μL LQTR flow cell. The flow rate of Ultima Flow M scintillation fluid was 1 mL/min, providing a mixing ratio of scintillation cocktail to mobile phase of 5:1. Separation of the metabolite peaks was accomplished on a Phenomenex Luna C18(2) column, 150×2.0 mm, 5 micron (Phenomenex, Torrance, Calif.), using a linear gradient of two mobile phases, A and B. Mobile phase A was 10 mM ammonium acetate, pH 6.0, and mobile phase B was acetonitrile. The flow rate was 0.2 mL/min.
# [2] = Fecal excretion and metabolite profile by radiochromatography, rats; type: in vivo, Sprague Dawley rats; conditions: for % of the radioactive dose excreted in feces: rats
# Procedure: as §1
# Fecal homogenates collected from male rats between 8 and 24 hours post-dose were analyzed for metabolite profiles. Aliquots of approximately 1 gram of fecal homogenate were centrifuged at 3500 rpm and 4° C. in a Sorvall Super 21 centrifuge for 10 minutes. The supernatant was transferred to a clean tube. The residue was re-suspended with 1 mL of water:acetonitrile (1:1, v:v) and centrifuged as described above. The resulting supernatant was combined with the original supernatant and the residue re-suspended with 1 mL of acetonitrile. The suspension was centrifuged as described above, and the supernatants were combined and analyzed for radioactivity. The supernatants were then concentrated under a stream of nitrogen in a Turbo Vap to remove the acetonitrile. An aliquot of the aqueous residue was analyzed by HPLC for profiling. Selected samples were also analyzed by LC/MS to characterize the radioactive peaks.
# as §2
# [3] = Stability of [14C]DVS in control rat plasma; type: in vitro ADME; conditions: 37° C.
# Procedure: The stability of [^14C]DVS in rat plasma was determined. [^14C]DVS (0.01 mg/mL, final concentration) was added to control rat plasma and incubated in a shaking water bath set to 37° C. Aliquots (0.5 mL) were removed at 0, 1, 4, 8 and 24 hours. Samples were extracted as described above and radiopurity assayed by HPLC analysis.
# [4] = Stability of [14C]DVS in control rat urine; type: in vitro ADME; conditions: 37° C.
# Procedure: The stability of [^14C]DVS in rat urine was determined. [^14C]DVS (0.13 mg/mL, final concentration) was added to control rat urine and incubated in a shaking water bath set to 37° C. Aliquots (0.5 mL) were removed at 0, 1, 4, 8 and 24 hours. Samples were extracted as described above and radiopurity assayed by HPLC analysis.
# [5] = Stability of [14C]DVS in control dog plasma; type: in vitro ADME; conditions: 37° C., up to 24 hours
# Procedure: The stability of [^14C]DVS in dog plasma was determined. [^14C]DVS (0.012 mg/mL, final concentration) was added to control dog plasma and incubated in a shaking water bath set to 37° C. Duplicate aliquots (1 mL) were removed at 0, 1, 4, 8, and 24 hours. Samples were extracted as described above and radiopurity assayed by HPLC analysis.
# [6] = tested on: dog liver microsomes; assay: Glucuronidation in dog liver microsomes; type: in vitro ADME; conditions: dog liver microsomes 1 mg/mL, 100 μM, 30 minutes; in the presence of only UDPGA
# Procedure: To confirm the site of glucuronidation of DVS, incubations were performed using dog liver microsomes. These incubations compared the glucuronidation of DVS to venlafaxine. […] Reactions were initiated by the addition of UDPGA (final concentration 1 mM). An additional set of incubations was performed for venlafaxine with UDPGA and an NADPH generating system. […] Reactions were stopped by the addition of 500 μL of acetonitrile and processed as described above. Samples were analyzed by LC/MS.
# [7] = tested on: norepinephrine levels in the brains; assay: Norepinephrine levels in the brains of rats; type: in vivo; conditions: 30 mg/kg (free base), administered subcutaneously, male Sprague Dawley rats
smiles,measurement,setting,value
"CN(C)CC(c1ccc(O)cc1)C1(O)CCCCC1.O=C(O)CCC(=O)O (centres unmarked) [DVS, O-desmethylvenlafaxine succinate]","Compounds Detected by Radiochromatography in urine (Mean ± S.D., n = 3), percent of total peaks","[1]; 0-8 hr, female",20.0 ± 3.5%
same,"Radioactivity as % of Dose in urine, Mean ± S.D.","[1]; 0-8 hr, female",54.5 ± 12%
same,"Radioactivity as % of Dose in urine, Individuals","[1]; 0-8 hr, female",53.8% and 42.7% and 67.1%
same,"Compounds Detected by Radiochromatography in urine (Mean ± S.D., n = 3), percent of total peaks","[1]; 0-8 hr, male",10.9 ± 2.1%
same,"Radioactivity as % of Dose in urine, Mean ± S.D.","[1]; 0-8 hr, male",59.1 ± 7.9%
same,"Radioactivity as % of Dose in urine, Individuals","[1]; 0-8 hr, male",60.1% and 50.7% and 66.5%
same,"Compounds Detected by Radiochromatography in urine (Mean ± S.D., n = 3), percent of total peaks","[1]; 8-24 hr, male",9.1 ± 1.1%
same,"Radioactivity as % of Dose in urine, Mean ± S.D.","[1]; 8-24 hr, male",25.5 ± 6.4%
same,"Radioactivity as % of Dose in urine, Individuals","[1]; 8-24 hr, male",24.6% and 32.3% and 19.7%
same,% of the radioactive dose recovered in urine,[1]; within 24 hours post-dose,85%
same,% of the radioactive dose recovered in urine,[1]; within the first 8 hours post-dose,greater than 50%
same,"Radioactivity as % of Dose in feces, Mean ± S.D.","[2]; male rats, feces 8-24 hours post-dose, single oral 20 mg/kg",9.6 ± 1.1%
same,"Compounds Detected by Radiochromatography in feces, percent of total peaks, individual rats","[2]; male rats, feces 8-24 hours post-dose, single oral 20 mg/kg, 20 mg/kg",19.6% and 20.8% and 22.0%
same,"Radioactivity as % of Dose in feces, individual rats","[2]; male rats, feces 8-24 hours post-dose, single oral 20 mg/kg, listed as [^14C]DVS, 20 mg/kg",10.8% and 9.5% and 8.5^b %
same,% of the radioactive dose excreted in feces,[2]; 0-8 hour fecal samples,Less than 0.1%
same,% of the radioactive dose excreted in feces,[2]; within 24 hours of dosing,approximately 10%
same,radiopurity of [14C]DVS in rat plasma,[3]; all time points up to 24 hours,greater than 98.9%
same,Stability of [14C]DVS in control rat plasma,[3]; up to 24 hours,stable
same,radiopurity of [14C]DVS in rat urine,[4]; all time points up to 24 hours,greater than 99.5%
same,Stability of [14C]DVS in control rat urine,[4]; up to 24 hours,stable
same,Stability of [14C]DVS in control dog plasma,[5],stable
same,glucuronidation,[6],observed
same,norepinephrine levels in the brains,[7],significantly increased
